# Experimental data from PubChem BioAssay (NCI).
#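 Results reflect a 48-hour exposure of cells in 96-well plates to compound at five concentrations. The concentration for 50% growth inhibition is given as GI50. TGI: concentration producing complete growth inhibition.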
# How the values were obtained:
# Experiment in all cases: growth of human tumour cells (NCI), 48 h
# ACHN renal = system: ACHN renal
# MOLT-4 leukemia = system: MOLT-4 leukemia
# IGROV1 ovarian = system: IGROV1 ovarian
# HL-60(TB) leukemia = system: HL-60(TB) leukemia
# OVCAR-8 ovarian = system: OVCAR-8 ovarian
# SF-268 CNS = system: SF-268 CNS
# NCI-H522 lung = system: NCI-H522 lung
# HS 578T breast = system: HS 578T breast
# NCI-H460 lung = system: NCI-H460 lung
# MDA-MB-231 breast = system: MDA-MB-231 breast
# HOP-62 NSCLC = system: HOP-62 NSCLC
# SNB-19 CNS = system: SNB-19 CNS
# SF-295 CNS = system: SF-295 CNS
# RXF 393 renal = system: RXF 393 renal
# SW-620 colon = system: SW-620 colon
# M14 melanoma = system: M14 melanoma
# SK-MEL-28 melanoma = system: SK-MEL-28 melanoma
# SF-539 CNS = system: SF-539 CNS
# NCI-H226 lung = system: NCI-H226 lung
# DU-145 prostate = system: DU-145 prostate
# OVCAR-4 ovarian = system: OVCAR-4 ovarian
# HT29 colon = system: HT29 colon
# KM12 colon = system: KM12 colon
# MDA-MB-435 = system: MDA-MB-435
# K-562 leukemia = system: K-562 leukemia
# HCT-116 colon = system: HCT-116 colon
# UACC-257 melanoma = system: UACC-257 melanoma
# A498 renal = system: A498 renal
# SK-MEL-5 melanoma = system: SK-MEL-5 melanoma
# A549 NSCLC = system: A549 NSCLC
# 786-0 renal = system: 786-0 renal
# OVCAR-5 ovarian = system: OVCAR-5 ovarian
# SK-OV-3 ovarian = system: SK-OV-3 ovarian
# EKVX NSCLC = system: EKVX NSCLC
# MALME-3M melanoma = system: MALME-3M melanoma
# NCI-H23 lung = system: NCI-H23 lung
# SNB-75 CNS = system: SNB-75 CNS
# BT-549 breast = system: BT-549 breast
# TK-10 renal = system: TK-10 renal
# MCF7 breast = system: MCF7 breast
# PC-3 prostate = system: PC-3 prostate
# NCI/ADR-RES ovarian = system: NCI/ADR-RES ovarian
# COLO 205 colon = system: COLO 205 colon
# UO-31 renal = system: UO-31 renal
# LOX IMVI melanoma = system: LOX IMVI melanoma
# SK-MEL-2 melanoma = system: SK-MEL-2 melanoma
# HOP-92 NSCLC = system: HOP-92 NSCLC
# UACC-62 melanoma = system: UACC-62 melanoma
# OVCAR-3 ovarian = system: OVCAR-3 ovarian
# CCRF-CEM leukemia = system: CCRF-CEM leukemia
# HCC-2998 colon = system: HCC-2998 colon
# U251 CNS = system: U251 CNS
# HCT-15 colon = system: HCT-15 colon
# SN12C renal = system: SN12C renal
# RPMI-8226 leukemia = system: RPMI-8226 leukemia
# SR leukemia = system: SR leukemia
# T-47D breast = system: T-47D breast
# CAKI-1 renal = system: CAKI-1 renal
compound,measurement,setting,value
CC[C@H](C)[C@H](NC(=O)[C@H]1CCCCN1C)C(=O)N(C)[C@H](CCc1nc(C(=O)N[C@@H](Cc2ccccc2)C[C@H](C)C(=O)OC)cs1)C(C)C,GI50,ACHN renal,1.75 µM
same,TGI,ACHN renal,> 25 µM
same,GI50,MOLT-4 leukemia,0.727 µM
same,TGI,MOLT-4 leukemia,> 25 µM
same,GI50,IGROV1 ovarian,0.316 µM
same,TGI,IGROV1 ovarian,> 25 µM
same,GI50,HL-60(TB) leukemia,0.0677 µM
same,TGI,HL-60(TB) leukemia,0.242 µM
same,GI50,OVCAR-8 ovarian,0.717 µM
same,TGI,OVCAR-8 ovarian,> 25 µM
same,GI50,SF-268 CNS,1.03 µM
same,TGI,SF-268 CNS,> 25 µM
same,GI50,NCI-H522 lung,0.0446 µM
same,TGI,NCI-H522 lung,0.143 µM
same,GI50,HS 578T breast,0.322 µM
same,TGI,HS 578T breast,5.29 µM
same,GI50,NCI-H460 lung,0.395 µM
same,TGI,NCI-H460 lung,> 10.3 µM
same,GI50,MDA-MB-231 breast,0.36 µM
same,TGI,MDA-MB-231 breast,1.8 µM
same,GI50,HOP-62 NSCLC,0.777 µM
same,TGI,HOP-62 NSCLC,> 22.9 µM
same,GI50,SNB-19 CNS,0.151 µM
same,TGI,SNB-19 CNS,> 25 µM
same,GI50,SF-295 CNS,0.459 µM
same,TGI,SF-295 CNS,> 25 µM
same,GI50,RXF 393 renal,0.308 µM
same,TGI,RXF 393 renal,> 25 µM
same,GI50,SW-620 colon,0.213 µM
same,TGI,SW-620 colon,> 25 µM
same,GI50,M14 melanoma,0.215 µM
same,GI50,SK-MEL-28 melanoma,2.06 µM
same,TGI,SK-MEL-28 melanoma,> 25 µM
same,GI50,SF-539 CNS,0.464 µM
same,TGI,SF-539 CNS,1.53 µM
same,GI50,NCI-H226 lung,1.07 µM
same,TGI,NCI-H226 lung,> 12.4 µM
same,GI50,DU-145 prostate,0.351 µM
same,TGI,DU-145 prostate,> 25 µM
same,GI50,OVCAR-4 ovarian,1.36 µM
same,TGI,OVCAR-4 ovarian,> 25 µM
same,GI50,HT29 colon,0.202 µM
same,TGI,HT29 colon,3.06 µM
same,GI50,KM12 colon,0.261 µM
same,TGI,KM12 colon,> 25 µM
same,GI50,MDA-MB-435,0.0363 µM
same,TGI,MDA-MB-435,0.185 µM
same,GI50,K-562 leukemia,0.121 µM
same,TGI,K-562 leukemia,> 25 µM
same,GI50,HCT-116 colon,0.118 µM
same,TGI,HCT-116 colon,> 5.35 µM
same,GI50,UACC-257 melanoma,4.43 µM
same,TGI,UACC-257 melanoma,> 25 µM
same,GI50,A498 renal,0.14 µM
same,TGI,A498 renal,2.75 µM
same,GI50,SK-MEL-5 melanoma,0.0745 µM
same,TGI,SK-MEL-5 melanoma,1.02 µM
same,GI50,A549 NSCLC,1.1 µM
same,TGI,A549 NSCLC,> 25 µM
same,GI50,786-0 renal,0.432 µM
same,TGI,786-0 renal,> 11.6 µM
same,GI50,OVCAR-5 ovarian,1.12 µM
same,TGI,OVCAR-5 ovarian,> 25 µM
same,GI50,SK-OV-3 ovarian,0.797 µM
same,TGI,SK-OV-3 ovarian,> 25 µM
same,GI50,EKVX NSCLC,1.11 µM
same,TGI,EKVX NSCLC,> 25 µM
same,GI50,MALME-3M melanoma,3.71 µM
same,TGI,MALME-3M melanoma,> 25 µM
same,GI50,NCI-H23 lung,0.866 µM
same,TGI,NCI-H23 lung,> 25 µM
same,GI50,SNB-75 CNS,0.276 µM
same,TGI,SNB-75 CNS,7.65 µM
same,GI50,BT-549 breast,0.177 µM
same,TGI,BT-549 breast,2.48 µM
same,GI50,TK-10 renal,7.35 µM
same,TGI,TK-10 renal,> 25 µM
same,GI50,MCF7 breast,0.0648 µM
same,TGI,MCF7 breast,> 25 µM
same,GI50,PC-3 prostate,0.375 µM
same,TGI,PC-3 prostate,> 25 µM
same,GI50,NCI/ADR-RES ovarian,1.38 µM
same,TGI,NCI/ADR-RES ovarian,> 25 µM
same,GI50,COLO 205 colon,0.167 µM
same,TGI,COLO 205 colon,0.916 µM
same,GI50,UO-31 renal,1.78 µM
same,TGI,UO-31 renal,13.7 µM
same,GI50,LOX IMVI melanoma,0.353 µM
same,TGI,LOX IMVI melanoma,> 25 µM
same,GI50,SK-MEL-2 melanoma,0.104 µM
same,TGI,SK-MEL-2 melanoma,15.9 µM
same,GI50,HOP-92 NSCLC,0.292 µM
same,TGI,HOP-92 NSCLC,8.33 µM
same,GI50,UACC-62 melanoma,0.0986 µM
same,TGI,UACC-62 melanoma,> 25 µM
same,GI50,OVCAR-3 ovarian,0.0867 µM
same,GI50,CCRF-CEM leukemia,0.265 µM
same,TGI,CCRF-CEM leukemia,> 25 µM
same,GI50,HCC-2998 colon,0.694 µM
same,TGI,HCC-2998 colon,> 13.4 µM
same,GI50,U251 CNS,0.345 µM
same,TGI,U251 CNS,> 25 µM
same,GI50,HCT-15 colon,0.712 µM
same,TGI,HCT-15 colon,> 25 µM
same,GI50,SN12C renal,0.773 µM
same,TGI,SN12C renal,> 25 µM
same,GI50,RPMI-8226 leukemia,0.0929 µM
same,TGI,RPMI-8226 leukemia,8.17 µM
same,GI50,SR leukemia,0.0726 µM
same,TGI,SR leukemia,10.8 µM
COc1cccc(C2c3cc4c(cc3OC(N3CCCC3)C2C)OCO4)c1 (stereo unspecified),TGI,ACHN renal,83.8 µM
same,TGI,IGROV1 ovarian,38.7 µM
same,TGI,OVCAR-8 ovarian,> 100 µM
same,TGI,SF-268 CNS,76.8 µM
same,TGI,NCI-H522 lung,22.5 µM
same,TGI,HS 578T breast,34.6 µM
same,TGI,HOP-62 NSCLC,19.8 µM
same,TGI,SNB-19 CNS,61.4 µM
same,TGI,SF-295 CNS,37.8 µM
same,TGI,SW-620 colon,> 100 µM
same,TGI,M14 melanoma,21.1 µM
same,TGI,SK-MEL-28 melanoma,32.9 µM
same,TGI,SF-539 CNS,24.9 µM
same,TGI,DU-145 prostate,58.6 µM
same,TGI,HT29 colon,18.4 µM
same,TGI,KM12 colon,33 µM
same,TGI,MDA-MB-435,11.6 µM
same,TGI,K-562 leukemia,5.72 µM
same,TGI,HCT-116 colon,18.3 µM
same,TGI,UACC-257 melanoma,52.3 µM
same,TGI,SK-MEL-5 melanoma,18.5 µM
same,TGI,A549 NSCLC,> 100 µM
same,TGI,786-0 renal,33.7 µM
same,TGI,OVCAR-5 ovarian,82.1 µM
same,TGI,T-47D breast,70.9 µM
same,TGI,CAKI-1 renal,8.61 µM
same,TGI,EKVX NSCLC,94.1 µM
same,TGI,NCI-H23 lung,> 100 µM
same,TGI,SNB-75 CNS,81 µM
same,TGI,TK-10 renal,> 100 µM
same,TGI,MCF7 breast,51.5 µM
same,TGI,PC-3 prostate,46.9 µM
same,TGI,NCI/ADR-RES ovarian,33.5 µM
same,TGI,COLO 205 colon,36.7 µM
same,TGI,UO-31 renal,41.4 µM
same,TGI,LOX IMVI melanoma,30.5 µM
same,TGI,SK-MEL-2 melanoma,23.6 µM
same,TGI,HOP-92 NSCLC,12.6 µM
same,TGI,UACC-62 melanoma,34.5 µM
same,TGI,OVCAR-3 ovarian,28.6 µM
same,TGI,CCRF-CEM leukemia,17.1 µM
same,TGI,HCC-2998 colon,24.9 µM
same,TGI,HCT-15 colon,> 100 µM
same,TGI,SN12C renal,> 100 µM
same,TGI,RPMI-8226 leukemia,24.3 µM
same,TGI,SR leukemia,21.4 µM
COC(=O)c1ccc2c(c1)n(Cc1ccc3ccccc3c1)c[n+]2Cc1ccc2ccccc2c1,GI50,ACHN renal,10.2 µM
same,TGI,ACHN renal,29.8 µM
same,GI50,SF-268 CNS,1.5 µM
same,TGI,SF-268 CNS,3.02 µM
same,GI50,HS 578T breast,1.76 µM
same,TGI,HS 578T breast,4.65 µM
same,GI50,HOP-62 NSCLC,1.8 µM
same,TGI,HOP-62 NSCLC,4.28 µM
same,GI50,SF-295 CNS,1.86 µM
same,TGI,SF-295 CNS,5.56 µM
same,GI50,NCI-H226 lung,1.96 µM
same,TGI,NCI-H226 lung,4.44 µM
same,GI50,DU-145 prostate,1.77 µM
same,TGI,DU-145 prostate,3.52 µM
same,GI50,KM12 colon,1.37 µM
same,TGI,KM12 colon,2.83 µM
same,GI50,MDA-MB-435,1.33 µM
same,TGI,MDA-MB-435,2.75 µM
same,GI50,A498 renal,2.23 µM
same,TGI,A498 renal,6.49 µM
same,GI50,SK-MEL-5 melanoma,1.46 µM
same,TGI,SK-MEL-5 melanoma,2.78 µM
same,GI50,A549 NSCLC,11.3 µM
same,TGI,A549 NSCLC,36.8 µM
same,GI50,OVCAR-5 ovarian,2.12 µM
same,TGI,OVCAR-5 ovarian,13.7 µM
same,GI50,SK-OV-3 ovarian,2.82 µM
same,TGI,SK-OV-3 ovarian,13.4 µM
same,GI50,EKVX NSCLC,3.01 µM
same,TGI,EKVX NSCLC,20.4 µM
same,GI50,NCI/ADR-RES ovarian,24 µM
same,TGI,NCI/ADR-RES ovarian,> 100 µM
same,GI50,UO-31 renal,13 µM
same,TGI,UO-31 renal,63.9 µM
same,GI50,OVCAR-3 ovarian,1.37 µM
same,TGI,OVCAR-3 ovarian,2.78 µM
same,GI50,CCRF-CEM leukemia,1.79 µM
same,TGI,CCRF-CEM leukemia,4.46 µM
same,GI50,HCT-15 colon,4.48 µM
same,TGI,HCT-15 colon,26.8 µM
